Where “and” joins values, the source holds several entries; their conditions need not be identical. Equal entries are not always repeated. Blank lines part the entries; values can stand above or below the compound they belong to.
Legend:
[1] = system: PC-9/GR tumor-bearing nude mouse model; assay: In vivo fluorescence imaging targeting test (DiR); design: species or system nude mice; conditions: DiR 7.5 μg·mL^−1, 0.2 mL tail vein, within 24 h
Procedure: The nude mice with a body mass of approximately 25 g in the established PC-9/GR tumor-bearing nude mouse model were taken, and respectively injected with 0.2 mL of a DiR raw medicine, and DiR-coated RGD/R8-ERG/GEF-LIP and RGD/R8-ERG/GEF-LIP freeze-dried powder (DiR concentration: 7.5 μg·mL^−1) by tail vein injection, the nude mice were anesthetized with isoflurane at different time points, and placed in an in vivo imager to observe the distribution of liposome in vivo (Ex=748 nm, Em=780 nm, and exposure time: 2 s). After 24 h, after the last in vivo imaging was finished, the nude mice were killed, and the heart, liver, spleen, lung, kidney and tumor were taken out and placed in the in vivo imager to observe the distribution of liposome in the in vitro tissues. […] It is speculated that the particle size of freeze-dried powder is smaller than that of RGD/R8-ERG/GEF-LIP, which increases the probability of entering the tumor cells to a certain extent and increases the tumor targeting effect in vivo.

PC-9 cells = assay: Cell cycle by PI flow cytometry, PC-9 cells; assay type: cell-based, human; conditions: PC-9, 48 h
Procedure: (§1) The number of cells in logarithmic growth phase was adjusted to 1.5×10^5·mL^−1, the cells were inoculated into a 6-well culture plate, and cultured in a 37° C. 5% CO2 incubator until 80% of the cells were fused and then a drug was added for treatment. […] After the drug acted for 48 h, a supernatant and cells were collected, centrifuged at 800 rpm·min^−1 for 10 min, washed once with PBS and fixed overnight with 75% ice ethanol, ethanol was discarded by centrifuging, and the cells were washed twice with PBS. The PBS was discarded, each sample was added with 0.5 ml of a PI staining solution to stain for 15 min at room temperature in the dark, and placed on a flow cytometer for measuring the proportion of cells in each cycle. The experiment was repeated 3 times.
[…]. Other operations were the same as above.

A549 cells = assay: Cell cycle by PI flow cytometry, A549 cells; assay type: cell-based, human; conditions: A549, 48 h
Procedure: as §1

[2] = system: PC-9/GR lung cancer xenografts; assay: Preliminary pharmacodynamic test in PC-9/GR tumor-bearing nude mice; assay type: in vivo, BABL/C nude mouse
Procedure: A PC-9/GR lung cancer cell line was digested from a culture flask, and then resuspended in 0.9% normal saline, and the cell concentration was adjusted to 2.5×10^7·mL^−1 and the cell was inoculated into the left axilla of BABL/C nude mouse. Each nude mouse was inoculated with 0.2 mL of a cell suspension.
The nude mice in each group were administered by tail vein injection.
After starting administration, the body mass of the nude mouse was regularly measured once, and the longest and shortest diameters of the tumor were measured with a vernier caliper to calculate the volume of the tumor. After consecutively administrating 7 times, the tumor volume of each group was measured and the tumor inhibitory rate of each administration group was calculated. Tumor volume (mm^3)=½×Long diameter (mm)×Short diameter (mm)^2
Tumor inhibitory rate (%)=(Average tumor weight of model control group (mg)—Average tumor weight of administration group (mg))/Average tumor weight of model control group (mg)×100%

[3] = In vitro release of GEF by dialysis in different pH release media; assay type: physicochemical; conditions: for cumulative release percentage of GEF: 37° C., listed as GEF raw medicine
Procedure: Due to its high lipid solubility, ERG could be dissolved in pure methanol or pure ethanol. However, the membranes of the liposomes directly ruptured in pure methanol or pure ethanol, and a release medium was difficult to meet the “sink” condition of ERG. Therefore, the in vitro release of ERG was not investigated in the experiment. […] Therefore, the in vitro release of GEF drug under different pH conditions was investigated in the experiment. […] Calculation was carried out according to the following formula: Cumulative release percentage Q (%)=(c1×V0+Σn=1^t-1Cv)/M0×100%
In the experiment, the in vitro release of GEF drug under different pH conditions was investigated. […] For specific operation, please refer to “5.7 Release Rate” in Part II in details.

- fluorescence accumulation in the tumor site [1]: not accumulated in the tumor site
SMILES: CCCCCCCCCCCCCCCCCCN1/C(=C/C=C/C=C/C=C/C2=[N+](CCCCCCCCCCCCCCCCCC)c3ccccc3C2(C)C)C(C)(C)c2ccccc21.[I-] [DiR raw medicine]

SMILES: CC(C)[C@@H](C)/C=C/[C@@H](C)[C@H]1CC[C@H]2C3=CC=C4C[C@@H](O)CC[C@]4(C)[C@H]3CC[C@]12C [ERG, ergosterol]
- G2/M phase fraction (PC-9 cells; ERG 40 μM): 13.58±1.80%
- S phase fraction (PC-9 cells; ERG 40 μM, ERG+GEF 40+5 μM): 26.93±2.02%
- S phase fraction (A549 cells; ERG 20 μM): 32.05±2.27%

SMILES: COc1cc2ncnc(Nc3ccc(F)c(Cl)c3)c2cc1OCCCN1CCOCC1 [GEF, gefitinib]
- G0/G1 phase fraction (PC-9 cells; GEF 5 μM, ERG+GEF 40+5 μM): 78.35±1.58%
- G0/G1 phase fraction (A549 cells; GEF 20 μM, combination of two drugs): 72.60±0.81%
- average tumor weight ([2]; compared with the model control group): highly significant difference
- tumor volume change ([2]; course over 15 days of administration): rapid growth trend after the 9th day of administration
- cumulative release percentage of GEF ([3]; pH 6.4 40% methanol-containing phosphate buffer, 24 h): 98.91% and 99.12%
- release model fitting ([3]; pH 6.4 release medium (FIG. 12)): conforms to the first-order kinetic equation
- release model fitting ([3]; pH 6.4 release medium (FIG. 25; freeze-dried powder first 4 h)): more in line with the first-order model
- cumulative release percentage of GEF ([3]; pH 7.4 40% methanol-containing phosphate buffer, within 24 h): 76.91% and 81.10%
- fitting correlation coefficient of the first-order kinetic equation ([3]; pH 7.4 release medium): 0.9952
- release model fitting ([3]; pH 7.4 release medium (FIG. 12)): closer to the Higuchi equation
- release model fitting ([3]; pH 7.4 release medium (FIG. 25; freeze-dried powder first 4 h)): more in line with the Higuchi model
